How the values were obtained:
[1] = target: T1, Aβ40 and Aβ42 peptides in plasma and brain of TgCRND8 mice (Homo sapiens, UniProt P05067); assay: Long term treatment in adult transgenic CRND8 mice overexpressing βAPP: Aβ levels in plasma and brain by ELISA; assay type: in vivo, Mouse; conditions: BX subcutaneous, BW and BZ oral, vs vehicle or methylcellulose control
T1 construct: ELISA using Human Aβ40 and Aβ42 Fluorometric ELISA kits from Biosource; from tissue; host or cells: plasma and brain homogenate of TgCRND8 transgenic mice (hAPP transgene)
Excerpt: (§1) Transgenic mice, TgCRND8, as those used in the short term treatment, overexpress a human APP gene with the Swedish and Indiana mutations leading to the production of high levels of the amyloid peptides and to the development of an early-onset, aggressive development of brain amyloidosis. The high levels of Aβ peptides and the relative overabundance of Aβ42 compared to Aβ40 are believed to be associated with the severe and early degenerative pathology observed. The pattern of amyloid deposition, presence of dystrophic neuritis, and cognitive deficit has been well documented in this transgenic mouse line. The levels of Aβ peptides in the brain of these mice increase dramatically as the animals age. While the total amyloid peptide levels increase from ˜1.6×10^5 pg/g of brain to ˜3.8×10^6 between 9 and 17 weeks of age.
(§2) The long-term therapeutic effects of compounds of the present invention on cerebral amyloid deposition and β-amyloid (Aβ) levels in the plasma and in the brains of transgenic mice, TgCRND8, expressing the human amyloid precursor protein (hAPP) was studied. These compounds were administered over an 8 or 16 week period at the end of which the levels of Aβ peptides in the plasma and brain of TgCRND8 animals were determined. The goal of this study was to evaluate the efficacy of the compounds at modulating the progression of the amyloidogenic process in the brain and in the plasma of a transgenic mouse model of Alzheimer's disease (AD)
(§3) The mice used in the study consisted of animals bearing one copy of the hAPP gene (+/−) from the 2nd and 3rd generation progenies (N2 and N3) derived from backcrosses from TgCRND8.FVB(N2)AJ(N3) with B6AF1/J hybrid animals. N1=TgCRND8.FVB(N2)AJ(N3)×B6AF1/J N2=TgCRND8.FVB(N2)AJ(N3).B6AF1/J(N1)×B6AF1/J N3=TgCRND8.FVB(N2)AJ(N3).B6AF1/J(N2)×B6AF1/a
(§4) The following abbreviations are used to designate these animals in the present study: TgCRND8.B6AF1/J(N2); TgCRND8.B6AF1/J(N3). Male and female transgenic mice were given daily subcutaneous (compound BX) or oral (compounds BW and BZ) administrations of the appropriate compounds for 8 or 16 weeks.
(§5) Baseline animals consisted of 9±1 week old naive TgCRND8.B6AF1/J animals from the 2nd and 3rd generations. These mice were used to determine the extent of cerebral amyloid deposits and Aβ levels in the plasma and brain of naive transgenic animals at the initiation of treatment.
(§6) Starting at 9 weeks of age (±1 week) animals received daily administration of their respective treatment for a period of 8 or 16 weeks, at a dose of 30 or 100 mg/kg at 10 ml/kg. The route of administration was subcutaneous for water-soluble compounds (Compound BX) and oral for compounds solubilized in methylcellulose 1% (MC 1%) (Compounds BW and BZ). At the end of the treatment periods, plasma and perfused brains were collected for quantification of Aβ levels.
(§7) Animal health was monitored, samples were collected and Aβ levels were measured as described above in the short term treatment study. Compounds were scored based on their ability to modulate levels of Aβ peptides in the plasma and the cerebral soluble/insoluble levels in the brain. Levels of Aβ observed in the plasma and brain of treated animals were compared to that of vehicle-treated (water) or methylcellulose-treated control groups and ranked according to the strength of the pharmacological effect. Increases in the levels of Aβ peptides are indicated using “+” symbols, while decreases in the levels of Aβ peptides are indicated using “−” symbols. The strongest effects are recorded as “+++” or “−−−” while the weakest are shown as “+” or “−”.
(§8) Specifically, increases in the levels of Aβ (relative to vehicle treated control) of 5 to 14% are scored as “+”; increases of 15 to 29% are scored as “++”; and increases of 30% or higher are scored as “+++”. Decreases in the levels of Aβ of 5 to 14% are scored as “−”; decreases of 15 to 29% are scored as “−−”; and decreases of 30% or more are scored as “−−−”. […]

[2] = tested on: Aβ40 and Aβ42 peptides in plasma and brain of TgCRND8 mice; assay: as above; assay type: in vivo, Mouse
Excerpt: as §1, §2, §3, §4, §5, §6, §7, §8

| SMILES | Brain Abeta40 insoluble ([1]; 30 mg/kg daily, 8 wks) | Brain Abeta40 soluble ([1]; 30 mg/kg daily, 8 wks) | Brain Abeta42 insoluble ([1]; 30 mg/kg daily, 8 wks) | Brain Abeta42 soluble ([1]; 30 mg/kg daily, 8 wks) | Plasma Abeta40 ([1]; 30 mg/kg daily, 8 wks) | Plasma Abeta42 ([1]; 30 mg/kg daily, 8 wks) | Brain Abeta40 insoluble ([1]; 30 mg/kg daily, 16 wks) | Brain Abeta40 soluble ([1]; 30 mg/kg daily, 16 wks) | Brain Abeta42 insoluble ([1]; 30 mg/kg daily, 16 wks) | Brain Abeta42 soluble ([1]; 30 mg/kg daily, 16 wks) | Plasma Abeta40 ([1]; 30 mg/kg daily, 16 wks) | Plasma Abeta42 ([1]; 30 mg/kg daily, 16 wks) | Brain Abeta40 insoluble ([1]; 100 mg/kg daily, 8 wks) | Brain Abeta40 soluble ([1]; 100 mg/kg daily, 8 wks) | Brain Abeta42 insoluble ([1]; 100 mg/kg daily, 8 wks) | Brain Abeta42 soluble ([1]; 100 mg/kg daily, 8 wks) | Plasma Abeta40 ([1]; 100 mg/kg daily, 8 wks) | Plasma Abeta42 ([1]; 100 mg/kg daily, 8 wks) | Brain Abeta40 insoluble ([1]; 100 mg/kg daily, 16 wks) | Brain Abeta40 soluble ([1]; 100 mg/kg daily, 16 wks) | also measured |
| --- | --- | --- | --- | --- | --- | --- | --- | --- | --- | --- | --- | --- | --- | --- | --- | --- | --- | --- | --- | --- | --- |
| O=S(=O)(O)CCCNC12CC3CC(CC(C3)C1)C2 [BW, 3-(1-adamantyl)amino-1-propanesulfonic acid] | −− (decreases of 15 to 29% are scored as “−−”) | − (Decreases in the levels of Aβ of 5 to 14% are scored as “−”) | 0 (changes of 4% or less in either direction are scored as “0”) | −− (decreases of 15 to 29% are scored as “−−”) | −−− (decreases of 30% or more are scored as “−−−”) | −−− (decreases of 30% or more are scored as “−−−”) | ++ (increases of 15 to 29% are scored as “++”) | + (increases in the levels of Aβ (relative to vehicle treated control) of 5 to 14% are scored as “+”) | + (increases in the levels of Aβ (relative to vehicle treated control) of 5 to 14% are scored as “+”) | − (Decreases in the levels of Aβ of 5 to 14% are scored as “−”) | −− (decreases of 15 to 29% are scored as “−−”) | −− (decreases of 15 to 29% are scored as “−−”) | −−− (decreases of 30% or more are scored as “−−−”) | −− (decreases of 15 to 29% are scored as “−−”) | −−− (decreases of 30% or more are scored as “−−−”) | −− (decreases of 15 to 29% are scored as “−−”) | − (Decreases in the levels of Aβ of 5 to 14% are scored as “−”) | − (Decreases in the levels of Aβ of 5 to 14% are scored as “−”) | + (increases in the levels of Aβ (relative to vehicle treated control) of 5 to 14% are scored as “+”) | ++ (increases of 15 to 29% are scored as “++”) | Brain Abeta42 insoluble ([1]; 100 mg/kg daily, 16 wks): ++ (increases of 15 to 29% are scored as “++”); Brain Abeta42 soluble ([1]; 100 mg/kg daily, 16 wks): + (increases in the levels of Aβ (relative to vehicle treated control) of 5 to 14% are scored as “+”); Plasma Abeta40 ([1]; 100 mg/kg daily, 16 wks): − (Decreases in the levels of Aβ of 5 to 14% are scored as “−”); Plasma Abeta42 ([1]; 100 mg/kg daily, 16 wks): − (Decreases in the levels of Aβ of 5 to 14% are scored as “−”); brain and plasma levels of Aβ ([2]; at 8 weeks): dramatic decrease; plasma levels of Aβ ([2]; at 16 weeks): dramatic decrease |
| O=S(=O)(O)CCCNC1C2CC3CC(C2)CC1C3 (stereo not drawn) [BZ, 3-(2-adamantyl)amino-1-propanesulfonic acid] | −− (decreases of 15 to 29% are scored as “−−”) | 0 (changes of 4% or less in either direction are scored as “0”) | −−− (decreases of 30% or more are scored as “−−−”) | 0 (changes of 4% or less in either direction are scored as “0”) | 0 (changes of 4% or less in either direction are scored as “0”) | 0 (changes of 4% or less in either direction are scored as “0”) | + (increases in the levels of Aβ (relative to vehicle treated control) of 5 to 14% are scored as “+”) | 0 (changes of 4% or less in either direction are scored as “0”) | 0 (changes of 4% or less in either direction are scored as “0”) | + (increases in the levels of Aβ (relative to vehicle treated control) of 5 to 14% are scored as “+”) | 0 (changes of 4% or less in either direction are scored as “0”) | + (increases in the levels of Aβ (relative to vehicle treated control) of 5 to 14% are scored as “+”) | 0 (changes of 4% or less in either direction are scored as “0”) | ++ (increases of 15 to 29% are scored as “++”) | − (Decreases in the levels of Aβ of 5 to 14% are scored as “−”) | 0 (changes of 4% or less in either direction are scored as “0”) | ++ (increases of 15 to 29% are scored as “++”) | +++ (increases of 30% or higher are scored as “+++”) | 0 (changes of 4% or less in either direction are scored as “0”) | −− (decreases of 15 to 29% are scored as “−−”) | Brain Abeta42 insoluble ([1]; 100 mg/kg daily, 16 wks): + (increases in the levels of Aβ (relative to vehicle treated control) of 5 to 14% are scored as “+”); Brain Abeta42 soluble ([1]; 100 mg/kg daily, 16 wks): − (Decreases in the levels of Aβ of 5 to 14% are scored as “−”); Plasma Abeta40 ([1]; 100 mg/kg daily, 16 wks): ++ (increases of 15 to 29% are scored as “++”); Plasma Abeta42 ([1]; 100 mg/kg daily, 16 wks): ++ (increases of 15 to 29% are scored as “++”) |
| CC(C)(C)NCCCS(=O)(=O)O [BX, 3-(t-butyl)amino-1-propanesulfonic acid] | −−− (decreases of 30% or more are scored as “−−−”) | −−− (decreases of 30% or more are scored as “−−−”) | −− (decreases of 15 to 29% are scored as “−−”) | −−− (decreases of 30% or more are scored as “−−−”) | + (increases in the levels of Aβ (relative to vehicle treated control) of 5 to 14% are scored as “+”) | + (increases in the levels of Aβ (relative to vehicle treated control) of 5 to 14% are scored as “+”) | −−− (decreases of 30% or more are scored as “−−−”) | −− (decreases of 15 to 29% are scored as “−−”) | − (Decreases in the levels of Aβ of 5 to 14% are scored as “−”) | 0 (changes of 4% or less in either direction are scored as “0”) | − (Decreases in the levels of Aβ of 5 to 14% are scored as “−”) | − (Decreases in the levels of Aβ of 5 to 14% are scored as “−”) | ++ (increases of 15 to 29% are scored as “++”) | + (increases in the levels of Aβ (relative to vehicle treated control) of 5 to 14% are scored as “+”) | 0 (changes of 4% or less in either direction are scored as “0”) | + (increases in the levels of Aβ (relative to vehicle treated control) of 5 to 14% are scored as “+”) | ++ (increases of 15 to 29% are scored as “++”) | +++ (increases of 30% or higher are scored as “+++”) | −−− (decreases of 30% or more are scored as “−−−”) | − (Decreases in the levels of Aβ of 5 to 14% are scored as “−”) | Brain Abeta42 insoluble ([1]; 100 mg/kg daily, 16 wks): −− (decreases of 15 to 29% are scored as “−−”); Brain Abeta42 soluble ([1]; 100 mg/kg daily, 16 wks): 0 (changes of 4% or less in either direction are scored as “0”); Plasma Abeta40 ([1]; 100 mg/kg daily, 16 wks): − (Decreases in the levels of Aβ of 5 to 14% are scored as “−”); Plasma Abeta42 ([1]; 100 mg/kg daily, 16 wks): 0 (changes of 4% or less in either direction are scored as “0”); amount of Aβ in the brain ([2]; at both 8 and 16 weeks): dramatic decrease |

Reference: patent US8642801B2 (BHI Limited Partnership, priority 2003, dated 2014)
